Results: patent publication US12103939B2, “Solid pharmaceutical gold-based composition” (KING FAHD UNIVERSITY OF PETROLEUM AND MINERALS, priority 2019, dated 2024)

Tests used:
[1] = system: normal human adipose-derived stromal cells (ADSCs); test: Growth inhibition in adipose-derived stromal cells (MTT, 72 h); assay type: cell-based; conditions: MTT after 72 h
Procedure: Human adipose-derived stromal cells (ADSCs) were from Lonza (Verviers, Belgium). ADSCs were maintained in MSGM bullet kit (Lonza) and experiments were performed in DMEM (Cambrex Bio Science, Milan, Italy) supplemented with 10% FBS. To evaluate effects of C6, ADSCs were seeded in 96-well flat-bottomed microplates (5.0×10^3 cells in 100 μL per well) and incubated for 24 h (to allow cell adhesion) before drug testing. The medium was removed and replaced with fresh medium containing C6 at increasing concentrations (from 0.1 to 1 μM). Cells were incubated at 37° ° C. for 72 h. Each treatment was performed in triplicate. Cell growth was measured using the MTT assay.

[2] = system: PC3 cell xenografts; test: Human prostate tumor xenograft experiment; assay type: in vivo, female athymic nude mice
Procedure: Animal experiments were approved by the Italian Ministry of Health (no. 671/2015/PR). Ten 4-week-old female athymic nu/nu (nude) mice were purchased from Envigo. PC3 cells (3×10^6 in a 0.1 mL solution of Matrigel 1:3 in PBS) were inoculated subcutaneously into the right flank of each mouse. Body weight and tumors were measured three times a week, and tumor volumes were calculated according to the formula: (width^2×length×3.14)/6. When tumors reached a volume of ca. 120 mm^3, mice were divided into two groups of five animals each. Mice were treated every other day with an intratumoral injection of 2.5 mg/kg C6 or an equal volume of vehicle (10% DMSO, 20% Cremophor Sigma-Aldrich, 70% PBS). Mice were killed on day 32 when control tumors had reached about 1300 mm^3.

[3] = system: PC3 cells; test: Reactive oxygen species production (H2DCFDA); assay type: cell-based, human; conditions: PC3, C6 at IC50 and IC75, 24 h
Procedure: The production of reactive oxygen species (ROS) was evaluated using 2′,7′-dichlorodihydrofluorescein diacetate (H2DCFDA) (H2-DCF, DCF) (Invitrogen). Cells were pretreated with the antioxidant N-acetyl-L-cysteine (NAC; 5 mM) (Sigma) for 30 min before C6 was added. After 24 h of C6 treatment, cells were harvested and viable cells were counted by trypan blue dye exclusion. Then cells were washed, stained with 1 μM H2DCFDA for 30 min at 37° C., and finally ROS production was analyzed by flow cytometry.

[4] = system: 20S proteasome; test: 20S proteasome activity in lysates of treated PC3 cells; assay type: cell-based, human; conditions: PC3, 12 h
Procedure: Proteasome activity (EC 3.4.25.1) was evaluated on the same cell lysates as used to assay TrxR. Proteasome activity was assayed in cytosolic extracts using the 20S Proteasome Activity Assay kit APT280 (Merck Millipore) and a computer-interfaced GeniusPlus microplate reader (Tecan).

[5] = system: PC3 cells; test: Double-stranded DNA breaks (histone H2A.X phosphorylation); assay type: cell-based, human; conditions: PC3, 24 h
Procedure: The presence of double-stranded DNA breaks was assessed 24 h after treatment with C6 by fixing and permeabilizing cells with Fix & Perm medium A and B (Invitrogen) and staining with FITC anti-H2A.X Phospho (Ser139) Antibody (BioLegend, San Diego, USA). Stained cells were evaluated by flow cytometry.

[6] = system: PC3 cells; test: Cell cycle distribution (PI staining); assay type: cell-based, human; conditions: vs untreated cells
Procedure: To assay the distribution of cells in the various phases of the cell cycle, PC3 cells were treated with C6 for 48 h, then harvested, fixed in cold 70% ethanol for 15 min and stained with PI solution (50 μg/mL PI, 0.1% NP-40, 100 μg/mL PureLink RNase A, 0.1% sodium citrate). After 1 h, cells were analyzed by flow cytometry. The distribution of cells in different cell cycle phases was quantified using ModFit LT 4.0 software.

[7] = system: PC3 cells; test: Cellular uptake of gold(III) complexes (ICP-MS); assay type: cell-based, human; conditions: 3 μM, 2 h, ICP mass spectrometry
Procedure: After treatment, monolayers were washed with ice-cold PBS four times, and the cells were detached with trypsin-EDTA and washed three times with ice-cold PBS by centrifugation. The cell pellet was solubilized in 700 μL of HNO3—HCl solution (1:3 molar ratio) for 2 h at 100° C., and then diluted with 4 mL water. Samples were analyzed for gold on an Agilent 7500 inductively coupled plasma mass spectrometer (ICP-MS). Results were expressed as ng gold/10^6 cells. The experiment was performed a total of two times and the results were expressed as mean and SD.

[8] = system: PC3 cells; test: In vitro scratch assay (cell migration); assay type: cell-based, human; conditions: PC3, 3 h pretreatment with C6 (IC50), 36 h after scratch; control about 10%
Procedure: Cell migration was assessed using the in vitro scratch assay. Briefly, cells were grown to confluence and then treated with C6 (IC50). After 3 h, monolayers were washed twice with PBS, scraped with a pipette tip to create a “wound” in the monolayer, and washed again. Culture medium with 2% (not 10%) FBS was added and the cells were cultured for 36 h. Wounds were photographed every 12 h using an inverted microscope (EclipseTS/100, Nikon) at magnification 4×. Migration was assessed by measuring the cell-free area (in pixels) with ImageJ tool software after 12, 24 and 36 h.

[9] = system: caspase 3,7; test: Caspase 3,7 activation (FLICA, flow cytometry); assay type: cell-based, human; conditions: PC3, 24 h
Procedure: (§1) For apoptosis assays, PC3 cells were treated with C6 for 24 h and then apoptosis was assayed by staining for 15 min with FITC Annexin V reagent (BD Pharmingen) and propidium iodide (PI). Apoptotic cells were detected by flow cytometry (BD FACSCanto II flow cytometer) and analyzed using BD FACSDiva v8.0.1 software (BD Biosciences). Caspase 3,7 activation was evaluated using fluorochrome-labeled inhibitors of caspases (FLICA) of the CaspaTag Caspase 3,7 In Situ Assay Kit, Fluorescein (Millipore) and evaluated by flow cytometry; data were expressed as mean fluorescence intensity.

[10] = system: PC3 cells; test: Apoptosis assay (Annexin V-FITC / propidium iodide, flow cytometry); assay type: cell-based, human; conditions: PC3, C6 at IC50 and IC75, 24 h
Procedure: as §1

[11] = system: thioredoxin reductase (TrxR); test: Thioredoxin reductase activity in lysates of treated PC3 cells; conditions: PC3, C6 at IC25, IC50, IC75, 12 h
Procedure: All experimental conditions were tested in triplicate and experiments were done three times to calculate means and SD.
Thioredoxin reductase (TrxR) (EC 1.8.1.9) was assayed using the Thioredoxin Reductase Assay Kit (Sigma-Aldrich). […] Enzyme activity was determined reading absorbance at 412 nm using a spectrophotometer (Biomate 3 Thermo Spectronic). The enzymatic activity was normalized to the protein concentration, determined using the Bio-Rad protein assay (Protein Assay Dye Reagent Concentrate, Bio-Rad Laboratories), and expressed as percentage of control (no C6).

Compound: C[N+](C)=C1[S][Au-]2([S]1)[n+]1ccc[n+]3c1-c1[n+]2ccc[n+]1[Au-]31[S]C(=[N+](C)C)[S]1.[Cl-].[Cl-].[Cl-].[Cl-] [C6, [Au2(BPM)(DMDTC)2]Cl4]
- IC50 [1]: 1400 nM
- inhibitory effect on tumor growth ([2]; day 32, 2.5 mg/kg intratumoral every other day, vs vehicle): 71%
- mean tumor volume ([2]; day 32, 2.5 mg/kg intratumoral every other day, control 1327 mm^3): 385 mm^3
- weight of the animals ([2]; xenografted mice, 2.5 mg/kg intratumoral): did not affect the weight of the animals
- ROS production [3]: induced ROS production in a dose-dependent manner
- 20S proteasome activity [4]: dose-dependent inhibitory effect
- double-stranded DNA breaks (phosphorylation of histone H2A.X) [5]: increase in phosphorylation of histone H2A.X
- distribution of cells in the cell cycle [6]: increasing the percentage of cells in S phase and decreasing that in G1
- amount of internalized gold (cellular uptake) [7]: internalization even greater than that of C7
- remaining uncovered area in scratch assay [8]: about 40%
- caspase 3,7 activation (FLICA) [9]: activated caspase 3,7
- percentage of annexin-V-positive and annexin-V/PI-positive cells (apoptosis) [10]: dose-dependent increase in the percentage of annexin-V-positive cells
- TrxR enzymatic activity [11]: dose-dependent decrease of its enzymatic activity
